From patent US12214076B2, “Drug delivery vehicles for atherosclerosis nanomedicine” (Northwestern University, priority 2019, dated 2025) come the findings set out here.

Peptide text beside a SMILES is read from it.

Series [1] deals with J774.2 murine macrophages. The series is classed as cell-based, mouse. The protocol:
To measure cell metabolic activity, thiazolyl blue tetrazolium bromide (MTT, Sigma-Aldrich) was added to cells at 0.4 mg/mL in complete medium for 4 hours at 37° C. The plates were then aspirated and 100 µL of DMSO added for 10-15 minutes at room temperature on a plate shaker at low speed setting. The plates were run on an Epoch plate reader using absorbance at 560 nm corrected for background at 670 nm. Flow cytometry analysis for iNOS expression followed the methods described above.

The test system of a further series is J774.2 mouse macrophages. The experiment in a line: In Vitro Cholesterol Efflux Assay (Example 1). The series is classed as cell-based. To be noted: two- and threefold higher concentrations of LXR.
Series [2] is described as follows: Treatment study serum chemistry (toxicology analysis). The series is classed as in vivo, mouse. To be noted: for Alanine Aminotransferase (ALT) / Alkaline phosphatase / Aspartate Aminotransferase (AST) / Bicarbonate and CO2 / Bilirubin - Conjugated / Bilirubin - Unconjugated / Blood Urea Nitrogen / Cholesterol / Creatine / Creatine Kinase / Globulin / Glucose / Potassium / Sodium / Total Bilirubin / Total Protein: group median, end of 8-week treatment. The protocol: (§1) Blood samples were collected at the end of the treatment study for toxicology analysis. Mice were euthanized three days after their 16th treatment.
(§2) Tissue processing and imaging: Mice were sacrificed and euthanized under inhaled isoflurane anesthesia by diaphragm disruption and exsanguination. Phlebotomy was performed through direct right ventricular cardiac puncture using a 1 mL syringe and 25 G needle. Perfusion was performed through left ventricular cardiac puncture with 10 mL PBS and 10 mL 10% sucrose solution. The lungs, liver, spleen, kidney, aortic root, aortic arch, and descending aorta were harvested and stored in 10% sucrose for 20 minutes. Organs and vessels were then flash-frozen in Optimal Cutting Temperature embedding medium 4583 (Tissue-Tek®) with liquid nitrogen. Frozen specimens were stored at −80° C. and cryosectioned at […]. Confocal microscopy was performed on a Nikon AIR microscope. Two sets of images were acquired with a 10× Plan Fluor NA 0.3 objective. PAs were identified through quantification of the Alexa Fluor® 546 conjugated dye with 561 nm excitation and a 600/50 nm emission filter.
(§3) Statistics: The effect of treatments and sex on atherosclerosis progression in mice was analyzed using one- or two-factor analysis of variance (ANOVA) followed by a post-hoc student's t-test. The toxicological effects of treatments were also analyzed using two-factor ANOVA and a post-hoc student's t-test. Toxicological effects of treatments on liver proteins AST, ALT, and ALP were further analyzed using ordinal logistic regression models of likelihood ratio tests, followed by a post-hoc Wald test

The next series concerns LDLR KO mice. The experiment in a line: Atherosclerosis treatment study. The series is classed as in vivo, mouse. To be noted: both sexes. The protocol:
Mouse model of atherosclerosis: To study atherosclerosis, the LDLR KO mouse was used. LDLR KO mice are fed a high fat “western” diet (Teklad TD.88137) starting at 4 weeks of age. This diet consists of 20% fat, 0.2% cholesterol, and 34% high sucrose. LDLR KO mice fed this diet typically develop severe hypercholesterolemia (>800 mg/dL) and hypertriglyceridemia (>300 mg/dL) after only 2 weeks. By 12 weeks on the high fat diet, atherosclerotic lesions are detected in the aortic root and aortic arch on cryosections stained with Oil Red O (Sigma). Atherosclerosis was quantified in the aortic root as a percentage of the aortic root by taking the atherosclerotic area divided by the total aortic root area. Measurements were made with ImageJ software. All protocols for the animal model and procedures in this manuscript were approved by Northwestern University's Institutional Animal Care and Use Committee.
as §1, §2
Images were acquired with spectral detection and spectrally unmixed to accurately separate green autofluorescence from the red Alexa Fluor® 546 signal. Brightfield and fluorescent microscopy were performed using a Zeiss Axio Imager.A2 microscope with AxioVision software (release 4.8.2, 06-2010). All confocal and fluorescent sections were mounted with ProGold Diamond mounting media (Sigma). Slides were stained with Oil Red O to image and quantify atherosclerosis under brightfield microscopy. The elastic laminae were identified using the green fluorescent protein (GFP) filter with an exposure time of 3500 ms under 5× magnification. Nanofibers were identified in the aortic root by presence of Alexa Fluor® 546 on the Cy3 filter under 5-10× magnification, and in the internal organs under 20× magnification. Fluorescent pixel quantification in the aortic root and within organs was performed with ImageJ software.
as §3

A short description of series [3]: Solubility of LXR agonist without PA. The series is classed as physicochemical. To be noted: deionized water or PBS.
The nature of series [4]: Dialysis LXR agonist release study. The series is classed as physicochemical. To be noted: non-encapsulated LXR agonist, PBS, within the first hour. The protocol: LXR-40% ApoA1 PA (1 mM with respect to PA) was dissolved in PBS. […] To each dialysis cup 0.1 mL of sample was added with one cup used for each time-point to be measured. All samples were dialyzed against 4 mL of PBS at 37° C. The total contents of one dialysis cup were isolated and kept at 4° C. until measurement at each time point. […] For LC-MS, a 5 to 95% acetonitrile (0.1% formic acid) gradient was run over 30 min with mobile phase containing 0.1% NH40H. A total ion chromatogram was obtained in MS mode and integrated using Mass Hunter Agilent software. The peak area corresponding to [M-H]− for GW3965 was recorded for each sample in negative ion mode and normalized according to the volume of sample present. Percent encapsulation was determined as follows:
[formula] where NPA is the normalized peak area corresponding to LXR agonist (normalized for solution volume).

The target in another series is T1, human recombinant MMP2 (Homo sapiens, UniProt P08253).
T1 construct: purchased R&D systems
T1 sequence (P08253 110-660): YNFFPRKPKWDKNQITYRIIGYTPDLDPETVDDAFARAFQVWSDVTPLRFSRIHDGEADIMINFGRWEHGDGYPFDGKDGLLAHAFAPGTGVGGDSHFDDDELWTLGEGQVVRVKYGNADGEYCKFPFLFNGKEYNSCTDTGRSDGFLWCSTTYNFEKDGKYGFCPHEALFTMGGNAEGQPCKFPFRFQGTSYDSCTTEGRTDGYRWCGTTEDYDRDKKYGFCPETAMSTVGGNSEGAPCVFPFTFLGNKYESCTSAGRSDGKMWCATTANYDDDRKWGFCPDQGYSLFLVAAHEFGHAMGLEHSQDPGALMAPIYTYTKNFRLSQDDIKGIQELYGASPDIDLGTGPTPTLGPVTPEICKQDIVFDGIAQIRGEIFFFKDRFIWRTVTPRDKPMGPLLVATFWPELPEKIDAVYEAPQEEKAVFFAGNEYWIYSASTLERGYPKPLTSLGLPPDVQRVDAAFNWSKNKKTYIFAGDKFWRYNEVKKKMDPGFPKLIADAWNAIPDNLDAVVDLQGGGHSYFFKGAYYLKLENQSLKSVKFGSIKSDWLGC
The experiment in a line: MMP-Ac2-26 PA cleavage assay. The series is classed as biochemical. The following applies: 40 nM MMP2, 24 hours, 37° C. The protocol:
ROS-Ac2-26 and MMP-Ac2-26 PA cleavage assays: To examine ROS-mediated cleavage, 3-morpholinosydnonimine hydrochloride (SIN-1, Sigma-Aldrich or Abcam) was used. ROS-Ac2-26 PAs were reconstituted to 0.5 mM in phosphate buffer and treated with 100 μM SIN-1 for 24 hours at 37° C. For MMP2/9-mediated cleavage, human recombinant MMP2 (R&D systems, carrier-free) was used, activated with freshly prepared 1 mMp-aminophenylmercuric acetate (APMA, Sigma-Aldrich) for one hour at 37° C. The APMA disrupts the cysteine-zinc bond in MMP2 responsible for enzyme latency by liberation of the sulfhydryl group. 10% MMP-Ac2-26 PA co-assemblies were prepared at 0.5 mM in a cleavage buffer containing 50 mM tricine, 50 mM NaCl, 50 μM ZnCl2, and 10 mM CaCl2) at pH 7.4, and treated with 40 nM human recombinant MMP2 for 24 hours at 37° C. At the end of each time point, the samples were stored at −20° C., effectively stopping the cleavage reactions. Samples were analyzed at room temperature, 0.04-0.3 mg/mL with 0.1% NH4OH using a ThermoFisher Q Exactive HIF-X (ThermoFisher, Bremen, Germany) mass spectrometer coupled with a Waters Acquity H-class liquid chromatograph system. […] All measurements were recorded at a resolution setting of 120,000. […] Injection volume for all samples was […]. Data was analyzed on Xcalibur (ThermoFisher, Breman, Germany).

With `CC[C@H](C)[C@H](NC(=O)[C@H](Cc1ccccc1)NC(=O)[C@H](Cc1c[nH]c2ccccc12)NC(=O)[C@H](C)NC(=O)[C@H](CCC(N)=O)NC(=O)[C@H](CCCCN)NC(=O)[C@H](CC(C)C)NC(=O)[C@H](Cc1ccccc1)NC(=O)[C@H](CCC(=O)O)NC(=O)[C@H](CO)NC(=O)[C@@H](NC(=O)[C@H](CCSC)NC(=O)[C@H](C)NC(C)=O)C(C)C)C(=O)N[C@@H](CCC(=O)O)C(=O)N[C@@H](CC(N)=O)C(=O)N[C@@H](CCC(=O)O)C(=O)N[C@@H](CCC(=O)O)C(=O)N[C@@H](CCC(N)=O)C(=O)N[C@@H](CCC(=O)O)C(=O)N[C@@H](Cc1ccc(O)cc1)C(=O)N[C@H](C(=O)N[C@@H](CCC(N)=O)C(=O)N[C@H](C(=O)N[C@H](C(=O)N[C@@H](CCCCN)C(=O)O)C(C)C)[C@@H](C)O)C(C)C` [Ac2-26] (Ac-AMVSEFLKQAWFIENEEQEYVQTVK-OH; N-terminus and C-terminus assumed), in series [1], the “cellular metabolism (MTT) in comparison to the stimulated control” value is on record as “did not significantly affect cellular metabolism”.
Regarding `Cl.O=C(O)Cc1cccc(OCCCN(Cc2cccc(C(F)(F)F)c2Cl)CC(c2ccccc2)c2ccccc2)c1` [LXR, GW3965], in the series with J774.2 mouse macrophages, the “LXR effects upon macrophage efflux” value is listed as “no significant increases”. Also, in series [2] (All mice), the “Alanine Aminotransferase (ALT)” value was found to be 40 U/L; the Alkaline phosphatase is recorded as 65.5 U/L; the “Aspartate Aminotransferase (AST)” value is 135 U/L; the “Bicarbonate and CO2” value is listed as 12 mmol/L. Moreover, in series [2] (All mice), the “Bilirubin - Conjugated” value came out at 0.05 mg/dL, the “Bilirubin - Unconjugated” value stood at 0.3 mg/dL, the “Blood Urea Nitrogen” value turned out to be 23 mg/dL and the Cholesterol is given as 2000.5 mg/dL. Further, in series [2] (All mice), the Creatine was determined as 0 U/L, the “Creatine Kinase” value is 137.5 U/L, the Globulin is given as 2.7 g/dL and the Glucose turned out to be 237 mg/dL. In series [2] (All mice), the Potassium is recorded as 5.2 mmol/L, the Sodium was determined as 139.5 mmol/L, the “Total Bilirubin” value was 0.4 mg/dL and the “Total Protein” value is given as 5.45 g/dL. Moreover, in series [2] (Females), the “Alanine Aminotransferase (ALT)” value is 33 U/L; the Alkaline phosphatase is on record as 73 U/L; the “Aspartate Aminotransferase (AST)” value is given as 142 U/L; the “Bicarbonate and CO2” value is recorded as 10 mmol/L. Also, in series [2] (Females), the “Bilirubin - Conjugated” value worked out at 0 mg/dL, the “Bilirubin - Unconjugated” value is 0.5 mg/dL, the “Blood Urea Nitrogen” value came out at 21.5 mg/dL and the Cholesterol came to 2029 mg/dL. Also, in series [2] (Females), the Creatine was determined as 0 U/L, the “Creatine Kinase” value came to 136 U/L, the Globulin was 2.3 g/dL and the Glucose was determined as 203 mg/dL. Moreover, in series [2] (Females), the Potassium was found to be 4.6 mmol/L, the Sodium was 140 mmol/L, the “Total Bilirubin” value is given as 0.6 mg/dL and the “Total Protein” value is 5.4 g/dL. Moreover, in series [2] (Males), the “Alanine Aminotransferase (ALT)” value was determined as 47 U/L; the Alkaline phosphatase amounted to 41 U/L; the “Aspartate Aminotransferase (AST)” value worked out at 102 U/L; the “Bicarbonate and CO2” value is listed as 14 mmol/L. In series [2] (Males), the “Bilirubin - Conjugated” value was found to be 0.1 mg/dL, the “Bilirubin - Unconjugated” value is on record as 0.2 mg/dL, the “Blood Urea Nitrogen” value is 24 mg/dL and the Cholesterol is recorded as 1972 mg/dL. For the same compound, in series [2] (Males), the Creatine stood at 0 U/L, the “Creatine Kinase” value is listed as 138 U/L, the Globulin worked out at 2.8 g/dL and the Glucose is 259 mg/dL. In series [2] (Males), the Potassium was 5.2 mmol/L, the Sodium is recorded as 139 mmol/L, the “Total Bilirubin” value stood at 0.3 mg/dL and the “Total Protein” value is on record as 5.5 g/dL. Also, the “AST levels in comparison to the PBS control” value in series [2] (female mice) was “no significant differences”. Besides, in series [2] (male mice), the “aspartate aminotransferase (AST) in the blood in comparison to PBS” value is reported as “significantly elevated levels of aspartate aminotransferase (AST)”. Also, in the series with LDLR KO mice, the “reversal of atherosclerosis from baseline levels” value was “approximately 5%”. In the series on LDLR KO mice (twice per week over eight weeks, percent of atherosclerosis in the aortic root), the “atherosclerosis progression in comparison to the PBS control” value is given as “significantly decreased”. The solubility entry in series [3] is on record as “insoluble”. In series [4], the “release across the dialysis membrane” value is on record as “up to 85%”.
As for “C16-V2A2 (SEQ ID NO: 8)-E2-GGGPQGIWGQGK (SEQ ID NO: 1)-AMVSEFLKQAWFIENEEQEYVQTVK (SEQ ID NO: 7)-NH2 (C16-VVAAEEGGGPQGIWGQGKAMVSEFLKQAWFIENEEQEYVQTVK-NH2) [MMP-Ac2-26 PA]”, the “Ac2-26 release from PA nanofibers” value in the series with human recombinant MMP2 is “released Ac2-26”.
